Measured values taken from PubChem BioAssay (NCI).
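Dose response: 5 concentrations. Exposure: 48 h. Format: 96-well plates. Endpoint: linear interpolation; highest concentration if not reached. Abbreviation: GI50, concentration required for 50% inhibition of growth. At the TGI there is no net growth.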

Assays:
Assay in all cases: growth of human tumour cells (NCI), 48 h; in the data active means GI50 below about 0.43 µM; inactive means the rest
[1] = tested on: SK-MEL-28 melanoma
[2] = tested on: SN12C renal
[3] = tested on: LOX IMVI melanoma
[4] = tested on: UACC-62 melanoma
[5] = tested on: NCI-H460 lung
[6] = tested on: UO-31 renal
[7] = tested on: SR leukemia
[8] = tested on: NCI-H522 lung
[9] = tested on: K-562 leukemia
[10] = tested on: SNB-19 CNS
[11] = tested on: DU-145 prostate
[12] = tested on: A549 NSCLC
[13] = tested on: MOLT-4 leukemia
[14] = tested on: OVCAR-4 ovarian
[15] = tested on: MDA-MB-231 breast
[16] = tested on: RPMI-8226 leukemia
[17] = tested on: SK-MEL-5 melanoma
[18] = tested on: KM12 colon
[19] = tested on: HT29 colon
[20] = tested on: COLO 205 colon
[21] = tested on: SF-295 CNS
[22] = tested on: HOP-62 NSCLC
[23] = tested on: U251 CNS
[24] = tested on: HCC-2998 colon
[25] = tested on: SF-268 CNS
[26] = tested on: A498 renal
[27] = tested on: HCT-116 colon
[28] = tested on: HS 578T breast
[29] = tested on: IGROV1 ovarian
[30] = tested on: HOP-92 NSCLC
[31] = tested on: OVCAR-5 ovarian
[32] = tested on: 786-0 renal
[33] = tested on: SW-620 colon
[34] = tested on: CCRF-CEM leukemia
[35] = tested on: TK-10 renal
[36] = tested on: NCI-H23 lung
[37] = tested on: MALME-3M melanoma
[38] = tested on: NCI-H226 lung
[39] = tested on: HL-60(TB) leukemia
[40] = tested on: SK-OV-3 ovarian
[41] = tested on: BT-549 breast
[42] = tested on: NCI/ADR-RES ovarian
[43] = tested on: SNB-75 CNS
[44] = tested on: T-47D breast
[45] = tested on: HCT-15 colon
[46] = tested on: UACC-257 melanoma
[47] = tested on: MDA-MB-435
[48] = tested on: ACHN renal
[49] = tested on: RXF 393 renal
[50] = tested on: OVCAR-8 ovarian
[51] = tested on: M14 melanoma
[52] = tested on: SK-MEL-2 melanoma
[53] = tested on: SF-539 CNS
[54] = tested on: MCF7 breast
[55] = tested on: EKVX NSCLC
[56] = tested on: PC-3 prostate
[57] = tested on: CAKI-1 renal
[58] = tested on: OVCAR-3 ovarian

O=C1CCC(N2C(=O)c3ccc(NS(=O)(=O)c4ccccc4OC(F)(F)F)cc3C2=O)C(=O)N1 (stereo unspecified)
38.4 µM: TGI [52]
2.68 µM: TGI [43]
active: GI50 [6] 0.306 µM | GI50 [13] 0.0314 µM | GI50 [15] 0.082 µM | GI50 [22] 0.187 µM | GI50 [26] 0.266 µM | GI50 [28] 0.0582 µM | GI50 [30] 0.022 µM | GI50 [33] 0.312 µM | GI50 [34] 0.0312 µM | GI50 [37] 0.147 µM | GI50 [39] 0.0279 µM | GI50 [41] 0.12 µM | GI50 [43] 0.11 µM | GI50 [44] 0.165 µM | GI50 [45] 0.1 µM | GI50 [50] 0.159 µM
1.43 µM: TGI [28]
3.49 µM: TGI [37]
1.75 µM: TGI [26]
2.26 µM: TGI [15]
0.161 µM: TGI [30]
7.95 µM: TGI [49]
> 100 µM: TGI [1] | TGI [2] | TGI [3] | TGI [4] | TGI [5] | TGI [7] | TGI [8] | TGI [9] | TGI [10] | TGI [11] | TGI [12] | TGI [14] | TGI [16] | TGI [18] | TGI [19] | TGI [21] | TGI [23] | TGI [25] | TGI [27] | TGI [29] | TGI [31] | TGI [32] | TGI [33] | TGI [35] | TGI [36] | TGI [38] | TGI [40] | TGI [42] | TGI [46] | TGI [47] | TGI [48] | TGI [50] | TGI [51] | TGI [53] | TGI [54] | TGI [55] | TGI [57]
> 70.8 µM: TGI [24]
> 27 µM: TGI [17]
> 27.2 µM: TGI [20]
1.61 µM: TGI [41]
inactive: GI50 [1] 7.37 µM | GI50 [2] 1.14 µM | GI50 [3] > 100 µM | GI50 [4] 16.1 µM | GI50 [5] > 100 µM | GI50 [7] 10.8 µM | GI50 [9] 3.01 µM | GI50 [10] 0.843 µM | GI50 [11] > 100 µM | GI50 [12] 7 µM | GI50 [14] 2.61 µM | GI50 [16] 7.63 µM | GI50 [17] 2.56 µM | GI50 [18] 1.97 µM | GI50 [19] 7.7 µM | GI50 [20] 0.857 µM | GI50 [21] 4.38 µM | GI50 [23] > 100 µM | GI50 [24] 0.729 µM | GI50 [25] 0.911 µM | GI50 [27] > 100 µM | GI50 [29] 0.465 µM | GI50 [31] 12.6 µM | GI50 [32] 0.668 µM | GI50 [35] 2.72 µM | GI50 [36] > 100 µM | GI50 [38] 1.12 µM | GI50 [40] 2.6 µM | GI50 [42] 0.7 µM | GI50 [46] > 100 µM | GI50 [47] 6.34 µM | GI50 [48] 8.7 µM | GI50 [49] 0.609 µM | GI50 [51] 1.59 µM | GI50 [52] 1.67 µM | GI50 [53] > 50.7 µM | GI50 [54] 1.68 µM | GI50 [55] > 100 µM | GI50 [56] 0.455 µM | GI50 [57] 0.456 µM
> 68 µM: TGI [45]
2.46 µM: TGI [22]
> 27.8 µM: TGI [56]
> 29.1 µM: TGI [6]
0.35 µM: TGI [39]
0.341 µM: TGI [13]

CCN(CC)S(=O)(=O)c1ccc(-c2nc(C(Cl)Cl)nc3cc(C)nn23)cc1
7.4 µM: TGI [22]
4.33 µM: TGI [58]
7.08 µM: TGI [28]
5.96 µM: TGI [30]
7.41 µM: TGI [56]
4.49 µM: TGI [11]
> 100 µM: TGI [3] | TGI [6] | TGI [7] | TGI [8] | TGI [9] | TGI [10] | TGI [13] | TGI [15] | TGI [23] | TGI [25] | TGI [31] | TGI [32] | TGI [35] | TGI [38] | TGI [39] | TGI [43] | TGI [44] | TGI [52] | TGI [53] | TGI [54]
5.35 µM: TGI [18] | TGI [55]
9.24 µM: TGI [26]
4.96 µM: TGI [36]
8.66 µM: TGI [46]
3.47 µM: TGI [24]
5.17 µM: TGI [49]
5.72 µM: TGI [16]
6.77 µM: TGI [21]
5.57 µM: TGI [57]
inactive: GI50 [3] 6.32 µM | GI50 [5] 1.85 µM | GI50 [6] 2.78 µM | GI50 [7] 2.4 µM | GI50 [8] 4.55 µM | GI50 [9] 2.94 µM | GI50 [10] 2.9 µM | GI50 [11] 1.7 µM | GI50 [12] 1.88 µM | GI50 [13] 3.32 µM | GI50 [15] 2.55 µM | GI50 [16] 2.11 µM | GI50 [18] 1.89 µM | GI50 [20] 1.85 µM | GI50 [21] 2.13 µM | GI50 [22] 2.2 µM | GI50 [23] 2.19 µM | GI50 [24] 1.7 µM | GI50 [25] 3.32 µM | GI50 [26] 2.22 µM | GI50 [28] 2.4 µM | GI50 [30] 1.9 µM | GI50 [31] 3.07 µM | GI50 [32] > 100 µM | GI50 [35] 3.03 µM | GI50 [36] 2.01 µM | GI50 [38] 5.36 µM | GI50 [39] 2.6 µM | GI50 [58] 1.85 µM | GI50 [43] 6.91 µM | GI50 [44] 4.03 µM | GI50 [46] 2.59 µM | GI50 [48] 1.87 µM | GI50 [49] 1.71 µM | GI50 [52] > 100 µM | GI50 [53] 3.07 µM | GI50 [54] 2.84 µM | GI50 [55] 2.05 µM | GI50 [56] 2.16 µM | GI50 [57] 1.96 µM
4.17 µM: TGI [20]
5.12 µM: TGI [48]
4.47 µM: TGI [5]
4.6 µM: TGI [12]
